# Test: gradient 5% acetonitrile 3 min, to 50% in 2 min, to 85% in 15 min, held 3 min, 100 µL/min
# Conditions: column: Zorbax Extend-C18 2.1 x 50 mm; eluents: water / acetonitrile, 0.1% formic acid
# Method in brief: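 Using water and acetonitrile that each contained 0.1% formic acid, mixtures of ~100 pure standards were separated at 100 μL/min on a Zorbax Extend-C18 column (2.1 × 50 mm, 1.8 μm). The HPLC fed a quadrupole time-of-flight mass spectrometer working in positive and negative ionization mode, with dead and dwell volumes of 40 μL and 900 μL. Data were acquired over 3 months. Retention time was read from computationally picked adduct peaks after manual inspection of each.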
row,RP-LC retention time [s],SMILES
1,856,CN(CCc1noc(COc2ccc(Cl)cc2)n1)C(=O)c1ccco1
2,1190,Cc1ccc(C)c(-c2coc(-c3ccc(NC(=O)NCc4ccc(F)cc4)cc3)n2)c1
3,1060,Cc1cccc(-c2noc(Cn3nc(-c4ccc(F)cc4)ccc3=O)n2)c1
4,677,COc1ccc(N2CCN(CC(O)c3ccc(C)cc3)CC2)cc1 (stereo not given)
5,974,Cc1cc(F)ccc1NC(=O)C(C)C1CCN(C(=O)Nc2ccc(Cl)cc2)CC1 (stereo not given)
6,836,Cc1nc(-c2noc(-c3ccc(F)cc3)n2)cn1CC(=O)Nc1ccccc1
7,1210,O=S(=O)(Cc1cccc(Cl)c1)N1CCc2nc(-c3ccc(Cl)cc3)ncc2C1
8,750,COc1ccc2c(Sc3ccccc3)c(C(=O)N3CCN(c4ccccn4)CC3)[nH]c2c1
9,746,O=C(C1CCCN(c2cnc3nccnc3c2)C1)N1CCN(c2ccc(F)cc2)CC1 (stereo not given)
10,599,CC(C)N1CCC(c2nnc3n2CCN(S(=O)(=O)c2ccccc2Cl)C3)C1 (stereo not given)
11,1300,CCOc1ccccc1NC(=O)C1CCCN(c2nc3c(s2)c(C)nn3-c2ccccc2)C1 (stereo not given)
12,977,CCC(=O)N1c2ccc(S(=O)(=O)N3CCCCC3)cc2CC1C(=O)NCCCc1ccccc1 (stereo not given)
13,1320,CCCOc1nc2ccccc2nc1N1CCCC(C(=O)Nc2ccccc2OC)C1 (stereo not given)
14,608,O=C(N[C@@H]1CN(Cc2ccccn2)C[C@H]1CO)C1(c2ccccc2)CC1
15,808,CN(CCc1noc(-c2ccc(C(=O)N3CCCC3)cc2)n1)C(=O)COc1ccc(Cl)cc1
16,801,O=C(Nc1ccc(O)c(C(=O)O)c1)Oc1ccccc1
17,726,CCOC(=O)c1cccc(Nc2c(-c3ccc(C(=O)O)cc3)nc3cnccn23)c1
18,660,Cc1ccccc1NC(=O)N1CCC(c2cc3n(n2)CCCN(C)C3=O)CC1
19,916,Cc1ccc(N2CCN(C(=O)c3cn(-c4cc(N5CCSCC5)ncn4)cn3)CC2)cc1
20,846,O=C(c1ccccc1Br)N(Cc1cccc(Cl)c1)C1CCS(=O)(=O)C1 (stereo not given)
21,1170,CC1=NS(=O)(=O)N(Cc2ccccc2)C=C1C(=O)OCc1ccc(C)cc1
22,897,O=C(Cn1cccc1-c1nnc(-c2ccccc2)o1)Nc1ccc2c(c1)OCCO2
23,882,CN1C(=O)C(C)(C)COc2cc(NC(=O)CCSc3ccccc3)ccc21
24,771,O=C(c1ccccc1F)N1CCN(c2cc(-c3cccs3)[nH]n2)CC1
25,924,O=C(N1CCN(c2cc(-c3ccc(Cl)cc3)[nH]n2)CC1)C1(c2ccccc2)CC1
26,722,CC(C(=O)N1CCC(c2cc(N)on2)CC1)c1ccccc1 (stereo not given)
27,987,Cc1nc2ccccc2c(=O)n1Cc1noc(-c2ccc(C(F)(F)F)cc2)n1

# More lines, now with the values behind:
row,SMILES,RP-LC retention time [s]
1,CN(C)C(=O)c1csc(S(=O)(=O)N2CCC(C(=O)NCc3ccc(Cl)cc3)CC2)c1,787
2,COc1ccc(OC)c(S(=O)(=O)N2CCC(Cc3nncn3C)C2)c1 (stereo not given),619
3,Cn1cc(C(=O)NCc2cccc(Cl)c2)c(S(=O)(=O)N2CCSCC2)n1,892
4,CCS(=O)(=O)c1ccc(C(=O)Nc2nnc(Cc3ccc(Cl)s3)o2)cc1,735
5,NC(N)=N/N=C(\c1ccc(Cl)cc1)C1CC1,665
6,COc1ccc(-c2nnc(-c3ccccc3)o2)cc1S(=O)(=O)NC(C)(C)C,955
7,COCCCNC(=O)N1CCC(C)(c2noc(C3CCOCC3)n2)CC1,654
8,O=S(=O)(NC1CCCCC1)c1ccc2c(c1)-c1oncc1CO2,673
9,CCN(C(=O)c1ccc(OC)c(OC)c1)c1nc(-c2ccc(C)cc2)cs1,1200
10,CCNC(=O)C1CCCN(c2nc3ncn(CC(=O)Nc4ccc(C)cc4C)c(=O)c3s2)C1 (stereo not given),711
11,COc1ccc(OCc2nnc3sc(-c4cc(CC(C)C)[nH]n4)nn23)cc1,917
12,Cc1nnc(CNC(=O)C(=O)Nc2ccon2)o1,534
13,CCN1C(=O)NC(c2ccc(Cl)cc2)C2=C1CN(CCC(=O)NCCOC)C2=O (stereo not given),599
14,O=C(NCc1ccc(F)cc1)c1cn2c(n1)COCC2,631
15,CC(C)CC(=O)N1CCCCCCNC(=O)[C@@H]2CCCC[C@@H]21,833
16,CN1C(=O)CCC2(CNC(=O)c3cccn3C)CCC=C12 (stereo not given),720
17,Cc1cccc(NC(=O)Cn2nc3c(N(C)C4CCCCC4)nccn3c2=O)c1,714
18,Cc1cc(C)cc(-n2ccn(Cc3nc(-c4ccc(Cl)c(F)c4)no3)c(=O)c2=O)c1,976
19,COc1ccc(C(=O)N2[C@H]3CC[C@@H]2c2cnc(-c4ccc(F)cc4)nc2C3)cn1,892

row,SMILES,RP-LC retention time [s]
1,CCOC(=O)c1c(S(=O)(=O)N2CCC(C(=O)NCc3cccc(OC)c3)CC2)c(C)n(C)c1C,772
2,Cc1c(S(=O)(=O)N2CCCC(C)C2)c(C)n(C)c1C(=O)N1CCc2ccccc21 (stereo not given),1070
3,Cc1cccc(-c2nnc(-c3nc(NCCc4cnc[nH]4)c4ccccc4n3)o2)c1,672
4,Cc1cc(-c2nc(-c3ccc(F)cc3)no2)c(C)n1CC(=O)NC1CCCC1,1080
5,CCOc1cccc(-c2noc(-c3nnn(Cc4nc(-c5cccc(C)c5)oc4C)c3C)n2)c1,1410
6,Cc1ccsc1C(=O)N1C[C@@H](F)C[C@H]1C(=O)N1CCCCC1,695
7,COC(=O)C1=CN(c2ccc(C)cc2C)c2ccccc2S1(=O)=O,869
8,O=C1[C@H]2CN(Cc3ccncc3)C[C@H]2C(=O)N1Cc1ccc2c(c1)OCO2,605
9,Cc1nn(C(C)C(=O)NCCCN2CCC(N3CCCCC3)CC2)c(=O)c2c1sc1ccccc12 (stereo not given),592
10,O=C(Cc1nnc(-c2ccc3ncccc3c2)o1)Nc1cc(F)cc(F)c1,784
11,O=C(CN1CCN(c2ccc(F)cc2)C1=O)NCCCN1CCCC1=O,611
12,Cc1noc(C)c1S(=O)(=O)NCC(c1cccs1)S(=O)(=O)c1ccc(F)cc1 (stereo not given),847
13,CCN(CC)CCCNC(=O)C1CCCN(c2ncc(-c3ccccc3)cn2)C1 (stereo not given),673
14,CCCCCn1c(=O)c2ccccc2n(Cc2nc(-c3ccc(OC)cc3)no2)c1=O,1210
15,COc1cccc(-c2noc(C3CCCN3C(=O)c3ccc(C)s3)n2)c1 (stereo not given),997
16,COc1cc(NC(=O)C(C)Oc2ccc(=O)n(-c3ccc(F)cc3)n2)cc(OC)c1 (stereo not given),794
17,COc1ccc2nc(Nc3nc(-c4ccncc4)cs3)sc2c1,584
18,COc1ccc(-c2cn3cccnc3n2)cc1NC(=O)c1cccc(OC)c1OC,718
19,Cc1ccccc1CNC(=O)C1(C)CCCN(C(=O)NCC(C)C)C1 (stereo not given),820

# — the METLIN SMRT retention time set (Domingo-Almenara et al. 2019)
